Reference: patent US20030186869A1, “Polymer compositions comprising antifibrotic agents, and methods of treatment, pharmaceutical compositions, and methods of preparation therefor” (priority 1990, published 2003)
Where two headings read alike, the source gives them in different places.

Key:
RFL-6 cells = test: IC50 experiment, cytotoxicity / growth inhibition of RFL-6 rat fibroblast cells; type: cell-based; conditions: for factor by which cytotoxicity as PEG construct is reduced compared to the free amino acid: RFL-6 cells; for IC50: mean ± SD (n)
Experimental: In this test two different synthesis batches of cis-hydroxyproline (CHOP) linked to PEG were tested, along with free CHOP. […] The differences between the two batches of CHOP-PEG are not significant.

air-breathing rats = test: cHyp in air-breathing rats, parameters of exposure to hypoxia; type: in vivo, rat; conditions: for Hct / RV/(LV + S) / RVP / Protein: Air, day 3; for Protein: pulmonary artery
Text: In each animal, we assessed the effect of injection of cHyp on five parameters of exposure to hypoxia: mean right ventricular pressure (RVP) measured after the animal had been removed from the hypoxic environment, ratio of ventricular weights (RV/[LV+S]), hematocrit, and the contents of hydroxyproline and protein in the pulmonary artery. For each experimental group, comparisons were made to a group exposed to hypoxia and injected with a control substance and to a group exposed to air. For free cHyp, the control substance was saline; for cHyp entrapped in liposomes, the control substance was empty liposomes. Groups were age-matched; the air group was weight-matched to the hypoxic group injected with the control substance. Average results of each parameter were compared.
The sixth protocol studied whether cHyp injected in air breathing rats affected any of the parameters of exposure to hypoxia. Air groups were given free cHyp 200 or 100 mg/kg subcutaneously twice daily for 3 days (Groups 13 and 14) and were compared to saline injected animals. A group was injected with 200 mg/kg of cHyp in liposomes every 5 days during a 21-day exposure to air (Group 15), and results were compared to a group injected with empty liposomes every 5 days during a 21-day exposure to air.

[1] = test system: rats exposed to hypoxia (10% O2); test: cHyp (free or in liposomes) in rats developing hypoxic pulmonary hypertension; type: in vivo, rat; conditions: for Hct / RVP / RV/(LV + S) / Protein: Hypoxia, day 3; for Protein: pulmonary artery
Text: Six week old male Sprague Dawley rats (Crl:CD[SD]BR) weighing 185-205 g and 8 week old female Swiss mice (Crl:CP-1[ICR]BR) weighing 30-32 g (Charles River Breading Laboratories, Wilmington, Mass.) were maintained in a holding area one week prior to study and were fed food and water ad libitum. Rats were randomly allocated to hypoxia or air groups; mice breathed air. Animals were kept in a 12-hour light-dark cycle.
Four rats were placed in a polycarbonate chamber measuring 51×41×22 cm, and humidified gas (10% O2, 90% N2 flowed into the chamber at a rate of 400 ml/min. Gas samples were analyzed electrometrically (model MB53-MK2, Radiometer, Copenhagen, Denmark); PO2 ranged from 74-80 mmHg and PCO2 from 3-5 mmHg. Air-breathing rats were kept in cages in the same room and were pair-fed to hypoxic animals by weighing the food consumed by hypoxic animals and feeding the same amount of food to air-breathing animals to ensure similar final body weights. The chambers were opened once daily for 10 min. to clean, weigh and feed the animals.
A catheter was placed in the right ventricle of anesthetized rats (50 mg/kg pentobarbital intraperitoneally), and mean right ventricular pressure was measured using a pressure transducer (model P23Db, Statham, Instruments, Oxnard, Calif.) and recorded (model SP-2006, Statham Instruments). Pressure was measured after the animal had breathed air for 20 min. to eliminate the tonic response to hypoxia. After sacrifice by abdominal aorta transection, hematocrit and ratio of ventricular weights were measured, and the position of the catheter was confirmed at autopsy.
Main pulmonary artery (9 mm in length) was excised and analyzed for total protein and hydroxyproline contents as previously described. Tissue was hydrolyzed in 6N HCl at 118° C. for 48 hrs., diluted 1:10 in water, and a 0.1 ml aliquot was assayed for total protein by the ninhydrin method using leucine as standard and for hydroxyproline by a calorimetric method. Results of triplicate measurements were expressed as content per vessel.
Cis-4-hydroxy-L-proline dissolved in saline (free cHyp) or saline alone were injected subcutaneously (0.5 ml) or intravenously. Intravenous injections were performed in anesthetized animals (25 mg/kg thiopental, intraperitoneally). In rats, liposomes containing cHyp or empty liposomes were injected intravenously (18 μmol phospholipid in […]) via the dorsal vein of the penis over 5 sec using a 30 gauge needle. In mice, liposomes (18 μmol phospholipid in 0.5 ml) were injected into the tail vein.
Four modes of delivery of cHyp were used in rats. Free cHyp (200 or 100 mg/kg) was injected subcutaneously twice daily during exposure to hypoxia. A single dose of free cHyp (200 mg/kg) was given intravenously prior to exposure to hypoxia. Single doses of cHyp entrapped in liposomes (200 or 100 mg/kg) were injected intravenously prior to exposure to hypoxia. Multiple doses of cHyp in liposomes (200 mg/kg) were injected intravenously prior to hypoxia and every 5 days during exposure to hypoxia. Single doses of cHyp entrapped in liposomes after reticuloendothelial blockage were produced by intravenous injection of a single dose of empty liposomes followed 30 minutes later by a single intravenous dose of cHyp entrapped in liposomes (100 or 50 mg/kg) prior to exposure to hypoxia. The purpose was to enhance the localization of liposomes containing cHyp to the lungs by prior treatment with empty liposomes as temporary reticuloendothelial blocking agents.
In each animal, we assessed the effect of injection of cHyp on five parameters of exposure to hypoxia: mean right ventricular pressure (RVP) measured after the animal had been removed from the hypoxic environment, ratio of ventricular weights (RV/[LV+S]), hematocrit, and the contents of hydroxyproline and protein in the pulmonary artery. For each experimental group, comparisons were made to a group exposed to hypoxia and injected with a control substance and to a group exposed to air. […]

Smooth muscle cells = test: Smooth muscle cell proliferation, cells counted daily; type: cell-based; conditions: six day period, compared to free cHyp and tHyp
Text: As can be noted with respect to FIGS. 6-9, the antifibrotic agents can be conjugated with PEG or another polymer and used to reduce cellular proliferation in the presence of collagen metabolism. In FIG. 6, the effect of free cHyp, polymeric cHyp and free trans-hydroxyproline were compared over a six day period. Smooth muscle cells were allowed to proliferate in the presence of free cHyp, polymeric cHyp and trans-hydroxyproline. The polymeric cHyp was produced as described above and contained ester linkages. On each day, the cells were trypsinized and counted with a hemocytometer. […] This is further supported by the data illustrated in FIG. 9, generated with fibroblast cells. […] See, e.g., FIG. 7, which presents a comparison of activity between the ester linked polymer and the amide linked polymer in FIG. 8.

[2] = Serum release study in fetal calf serum; type: in vitro ADME, bovine; conditions: six day incubation in FCS at 37° C.
Experimental: (§1) Buffers at various pH levels were prepared according to the method described in Davies, The Analyst, 1959, 4:248-251, with final ionic strengths of approximately 0.15 mol./L. Incubation samples were prepared by dissolving the dual-labeled conjugate in the appropriate medium to obtain a 50 mg/mL concentration and immediately syringe filtering through 0.45 μm nylon filters. Aliquots (25-30 μL) at specified time points were removed for GPC analysis-fractionation. Release rates were determined by monitoring cleavage of the radiolabeled [^3H]-cHyp from the radiolabeled [^14C] polymeric backbone. Separation of the relatively high molecular weight backbone from the low molecular weight drug was readily achieved via gel permeation chromatography, which is a size separation technique, followed by scintillation counting of the collected fractions. This necessitated using radiolabeled-conjugate concentrations of 50 mg/mL, i.e., 1 mg of conjugate injected per run, resulting in appropriate molecular weight analysis and specific activity determinations for the collected fractions. The serum release studies were conducted in 100% heat inactivated fetal calf serum (ΔFCS) at 37° C. at a concentration of 50 mg/mL of conjugate to ΔFCS, over a six day period.

[3] = Hydrolytic stability of dual-labeled conjugate in pH buffers (GPC, scintillation counting); type: physicochemical; conditions: six day period
Experimental: as §1, with “The serum release studies were conducted in 100% heat inactivated fetal calf serum (ΔFCS) at 37° C. at a concentration of 50 mg/mL of conjugate to ΔFCS, over a six day period.” left out
The polymeric conjugate consists of two distinctly different parts: (a) the polymeric backbone [poly(PEG-Lys)]; and (b) the pendent chain which consists of the drug molecule and its linking bond (cHyp). […] The hydrolytic stability of the polymeric conjugate was monitored over a six day period. The stability of the bonds present in the polymeric conjugate (ether, amide and urethane) was evaluated by incubation of the dual-labeled polymeric conjugate at the specified pH. Aliquot removal at specified time intervals, followed by GPC analysis with fractionation, permitted the quantitative monitoring of both carrier stability (molecular weight profile) and drug release (determination of [^3H]/[^14C] ratio by scintillation counting), as is shown in FIG. 12. In the pH range from 0 to 12, no change in either molecular weight, polydispersity or the [^3H] to [^14C] ratio could be detected throughout the test period.

[4] = Rattus norvegicus, RFL-6, free amino acid, read-out: IC50, Free AA
[5] = 100 mg/kg subcutaneously for 3 days

O=C(O)C1C=CCN1 (racemic) [DHP, 3,4-dehydro-DL-proline]
factor by which cytotoxicity as PEG construct is reduced compared to the free amino acid (RFL-6 cells): 8 × | IC50 (RFL-6 cells; [4]): 700 ± 300 µM

NCCCC[C@H](N)C(=O)N1C[C@@H](O)C[C@H]1C(=O)O (relative stereo) [CHOP-Lys, L-lysine-cis-4-hydroxy-L-proline dipeptide]
IC50 (RFL-6 cells; lysyl dipeptide, read-out: IC50, AA-Lys): 7000 µM

O=C(O)[C@@H]1C[C@H](O)CN1 (stereo in doubt) [cHyp, cis-4-hydroxy-L-proline]
Hct (air-breathing rats; 100 mg/kg sq bid × 3 days): 47 ± 1% | RV/(LV + S) (air-breathing rats; 100 mg/kg sq bid × 3 days): 0.25 ± 0.01% | RVP (air-breathing rats; 100 mg/kg sq bid × 3 days): 9 ± 1 mmHg | Hct (air-breathing rats; 200 mg/kg sq bid × 3 days): 46 ± 1% | RV/(LV + S) (air-breathing rats; 200 mg/kg sq bid × 3 days): 0.24 ± 0.01% | RVP (air-breathing rats; 200 mg/kg sq bid × 3 days): 9 ± 1 mmHg | effect on any of the measured parameters (air-breathing rats; air, 200 mg/kg or 100 mg/kg twice daily subcutaneously for 3 days): no effect | Protein (air-breathing rats; 100 mg/kg sq bid × 3 days): 1.2 ± 0.1 mg/vessel | Protein (air-breathing rats; 200 mg/kg sq bid × 3 days): 1.2 ± 0.1 mg/vessel | hematocrit [1, 5]: partial decrease | increased RVP, RV/(LV+S) or hydroxyproline or protein contents [1, 5]: did not prevent | pulmonary hypertension ([1]; 200 mg/kg subcutaneously twice daily for 3 days): partially prevented | Hct ([1]; 100 mg/kg sq bid × 3 days): 51 ± 1 % | RVP ([1]; 100 mg/kg sq bid × 3 days): 14 ± 1 mmHg | Hct ([1]; 200 mg/kg iv × 1 injection): 55 ± 1 % | RV/(LV + S) ([1]; 200 mg/kg iv × 1 injection): 0.32 ± 0.01 % | RVP ([1]; 200 mg/kg iv × 1 injection): 14 ± 1 mmHg | Hct ([1]; 200 mg/kg sq bid × 3 days): 51 ± 1 % | RV/(LV + S) ([1]; 200 mg/kg sq bid × 3 days): 0.25 ± 0.01 % | RVP ([1]; 200 mg/kg sq bid × 3 days): 10 ± 1 mmHg | minimal total dose required to prevent hypoxic pulmonary hypertension ([1]; at 5 days, subcutaneous (200 mg/kg twice daily)): 2000 mg/kg | effect on any parameter ([1]; injected intravenously prior to hypoxic exposure): no effect | Protein ([1]; 100 mg/kg sq bid × 3 days): 2.3 ± 0.3 mg/vessel | Protein ([1]; 200 mg/kg iv × 1 injection): 2.3 ± 0.3 mg/vessel | Protein ([1]; 200 mg/kg sq bid × 3 days): 1.4 ± 0.1 mg/vessel | IC50 (RFL-6 cells; [4]): 8800 ± 5100 µM

O=C(O)[C@@H]1CCN1 [ACA, (S)-(−)-2-azetidinecarboxylic acid]
factor by which cytotoxicity as PEG construct is reduced compared to the free amino acid (RFL-6 cells): 4 × | IC50 (RFL-6 cells; [4]): 1700 ± 1800 µM

O=C(O)[C@@H]1CSCN1 [THP, (R)-(−)-2-thiazolidine-4-carboxylic acid]
factor by which cytotoxicity as PEG construct is reduced compared to the free amino acid (RFL-6 cells): 12 × | IC50 (RFL-6 cells; [4]): 700 ± 100 µM

Poly(PEG-Lys-cis-Hyp) Copolymer [amide linked polymer]
Cellular proliferation (Smooth muscle cells): further reduced

Poly(PEG-Lys-cis-Hyp) Copolymer [polymeric cHyp]
Cellular proliferation (Smooth muscle cells): significantly reduced

poly(PEG-[^14C]Lys-[^3H]cHyp) [dual-labeled polymeric conjugate]
cleavage of [3H]cHyp from the carrier [2]: did not occur to any appreciable extent | polymer backbone stability [2]: completely maintained | change in [3H]/[14C] ratios (amide stability) ([3]; pH 14, 25° C.): relatively no change | polymer backbone stability ([3]; pH 14, 25° C.): Massive backbone degradation | change in molecular weight, polydispersity or [3H] to [14C] ratio ([3]; pH range from 0 to 12, 25° C.): no change
